# Reference: ChEMBL document CHEMBL1201862, “PubChem BioAssay data set” (2004)
#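 These data come from cells grown in 96-well plates and exposed to compound for 48 hours at five concentrations. GI50 = concentration required for 50% inhibition of growth.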 Calls of active or inactive are those of the source. Cut-off read from the data, not from the text of the source: active = GI50 up to about 1.1 µM and inactive = higher.
# What was measured:
# Test in all cases: inhibition of tumour cell growth, NCI panel, 48 h
# 786-0 = system: 786-0
# A549 = system: A549
# ACHN = system: ACHN
# CCRF-CEM = system: CCRF-CEM
# COLO 205 = system: COLO 205
# DLD-1 = system: DLD-1
# DMS-273 = system: DMS-273
# EKVX = system: EKVX
# HCC 2998 = system: HCC 2998
# HCT-116 = system: HCT-116
# HCT-15 = system: HCT-15
# HL-60 = system: HL-60
# HOP-62 = system: HOP-62
# HT-29 = system: HT-29
# IGROV-1 = system: IGROV-1
# K562 = system: K562
# KM-20L2 = system: KM-20L2
# KM12 = system: KM12
# LOX IMVI = system: LOX IMVI
# LXFL 529 = system: LXFL 529
# M14 = system: M14
# M19-MEL = system: M19-MEL
# MOLT-4 = system: MOLT-4
# Malme-3M = system: Malme-3M
# NCI-H226 = system: NCI-H226
# NCI-H23 = system: NCI-H23
# NCI-H460 = system: NCI-H460
# NCI-H522 = system: NCI-H522
# OVCAR-3 = system: OVCAR-3
# OVCAR-4 = system: OVCAR-4
# OVCAR-8 = system: OVCAR-8
# RXF 393 = system: RXF 393
# SF-268 = system: SF-268
# SF-295 = system: SF-295
# SF-539 = system: SF-539
# SK-MEL-28 = system: SK-MEL-28
# SK-MEL-2 = system: SK-MEL-2
# SK-MEL-5 = system: SK-MEL-5
# SK-OV-3 = system: SK-OV-3
# SN12C = system: SN12C
# SNB-19 = system: SNB-19
# SNB-75 = system: SNB-75
# SNB-78 = system: SNB-78
# SR = system: SR
# SW-620 = system: SW-620
# TK-10 = system: TK-10
# U-251 = system: U-251
# UACC-257 = system: UACC-257
# UACC-62 = system: UACC-62
# UO-31 = system: UO-31
# XF498 = system: XF498
# A498 = system: A498
# BT-549 = system: BT-549
# CAKI-1 = system: CAKI-1
# DMS-114 = system: DMS-114
# DU-145 = system: DU-145
# HOP-18 = system: HOP-18
# HOP-92 = system: HOP-92
# Hs-578T = system: Hs-578T
# MCF7 = system: MCF7
# MDA-MB-231 = system: MDA-MB-231
# MDA-MB-435 = system: MDA-MB-435
# MDA-N = system: MDA-N
# NCI/ADR-RES = system: NCI/ADR-RES
# OVCAR-5 = system: OVCAR-5
# PC-3 = system: PC-3
# RPMI-8226 = system: RPMI-8226
# T47D = system: T47D
smiles,measurement,setting,value
CCC(C)(C)NC1=C(NC(C)=O)C(=O)c2ccccc2C1=O,GI50,786-0,> 75 µM (inactive)
same,GI50,A549,> 75 µM (inactive)
same,GI50,ACHN,15.2 µM (inactive)
same,GI50,CCRF-CEM,17 µM (inactive)
same,GI50,COLO 205,29.4 µM (inactive)
same,GI50,DLD-1,43.1 µM (inactive)
same,GI50,DMS-273,53.5 µM (inactive)
same,GI50,EKVX,> 75 µM (inactive)
same,GI50,HCC 2998,> 75 µM (inactive)
same,GI50,HCT-116,17.7 µM (inactive)
same,GI50,HCT-15,32.9 µM
same,GI50,HL-60,16.7 µM (inactive)
same,GI50,HOP-62,> 75 µM (inactive)
same,GI50,HT-29,> 75 µM (inactive)
same,GI50,IGROV-1,> 75 µM (inactive)
same,GI50,K562,20.8 µM (inactive)
same,GI50,KM-20L2,> 75 µM (inactive)
same,GI50,KM12,57.3 µM (inactive)
same,GI50,LOX IMVI,29.8 µM (inactive)
same,GI50,LXFL 529,45.6 µM (inactive)
same,GI50,M14,> 75 µM (inactive)
same,GI50,M19-MEL,13.3 µM (inactive)
same,GI50,MOLT-4,13.9 µM (inactive)
same,GI50,Malme-3M,28.7 µM (inactive)
same,GI50,NCI-H226,> 75 µM (inactive)
same,GI50,NCI-H23,18.9 µM (inactive)
same,GI50,NCI-H460,39.5 µM (inactive)
same,GI50,NCI-H522,10.2 µM (inactive)
same,GI50,OVCAR-3,34.8 µM (inactive)
same,GI50,OVCAR-4,> 75 µM (inactive)
same,GI50,OVCAR-8,54.8 µM (inactive)
same,GI50,RXF 393,25 µM (inactive)
same,GI50,SF-268,> 75 µM (inactive)
same,GI50,SF-295,> 75 µM (inactive)
same,GI50,SF-539,24.4 µM (inactive)
same,GI50,SK-MEL-28,61.5 µM (inactive)
same,GI50,SK-MEL-2,21 µM (inactive)
same,GI50,SK-MEL-5,13.5 µM (inactive)
same,GI50,SK-OV-3,> 75 µM (inactive)
same,GI50,SN12C,> 75 µM (inactive)
same,GI50,SNB-19,> 75 µM (inactive)
same,GI50,SNB-75,> 75 µM (inactive)
same,GI50,SNB-78,35.2 µM (inactive)
same,GI50,SR,31.3 µM (inactive)
same,GI50,SW-620,35.1 µM (inactive)
same,GI50,TK-10,> 75 µM (inactive)
same,GI50,U-251,36.1 µM (inactive)
same,GI50,UACC-257,20.3 µM (inactive)
same,GI50,UACC-62,24.9 µM (inactive)
same,GI50,UO-31,27.5 µM (inactive)
same,GI50,XF498,14.4 µM (inactive)
CN(C)CCNc1ccc2nnn3c4ccc(O)cc4c(=O)c1c23,GI50,786-0,2.15 µM (inactive)
same,GI50,A498,3.71 µM (inactive)
same,GI50,A549,0.598 µM (active)
same,GI50,ACHN,2.76 µM (inactive)
same,GI50,BT-549,15.2 µM (inactive)
same,GI50,CAKI-1,3.13 µM (inactive)
same,GI50,CCRF-CEM,1.11 µM (active)
same,GI50,COLO 205,3.39 µM (inactive)
same,GI50,DLD-1,3.4 µM (inactive)
same,GI50,DMS-114,5.79 µM (inactive)
same,GI50,DU-145,6.31 µM (inactive)
same,GI50,EKVX,3.13 µM (inactive)
same,GI50,HCC 2998,5.48 µM (inactive)
same,GI50,HCT-116,1.35 µM (inactive)
same,GI50,HCT-15,1.29 µM
same,GI50,HL-60,1.71 µM (inactive)
same,GI50,HOP-18,21.3 µM (inactive)
same,GI50,HOP-62,1.39 µM (inactive)
same,GI50,HOP-92,4.59 µM (inactive)
same,GI50,HT-29,4.28 µM (inactive)
same,GI50,Hs-578T,2.03 µM (inactive)
same,GI50,IGROV-1,1.96 µM (inactive)
same,GI50,K562,1.61 µM (inactive)
same,GI50,KM-20L2,7.82 µM (inactive)
same,GI50,KM12,2.32 µM (inactive)
same,GI50,LOX IMVI,1.5 µM (inactive)
same,GI50,LXFL 529,3.01 µM (inactive)
same,GI50,M14,7.59 µM (inactive)
same,GI50,MCF7,2.44 µM (inactive)
same,GI50,MDA-MB-231,0.273 µM (active)
same,GI50,MDA-MB-435,4.07 µM (inactive)
same,GI50,MDA-N,1.86 µM (inactive)
same,GI50,MOLT-4,0.168 µM (active)
same,GI50,Malme-3M,5.05 µM (inactive)
same,GI50,NCI-H226,6.31 µM (inactive)
same,GI50,NCI-H23,3.75 µM (inactive)
same,GI50,NCI-H460,0.498 µM (active)
same,GI50,NCI-H522,3.12 µM (inactive)
same,GI50,NCI/ADR-RES,1.81 µM (inactive)
same,GI50,OVCAR-3,5.73 µM (inactive)
same,GI50,OVCAR-4,2.08 µM (inactive)
same,GI50,OVCAR-5,4.41 µM (inactive)
same,GI50,OVCAR-8,1.73 µM (inactive)
same,GI50,PC-3,1.46 µM (inactive)
same,GI50,RPMI-8226,2.06 µM (inactive)
same,GI50,RXF 393,1.68 µM (inactive)
same,GI50,SF-268,5.38 µM (inactive)
same,GI50,SF-295,2.54 µM (inactive)
same,GI50,SF-539,3.95 µM (inactive)
same,GI50,SK-MEL-28,10.9 µM (inactive)
same,GI50,SK-MEL-2,9.79 µM (inactive)
same,GI50,SK-MEL-5,2.53 µM (inactive)
same,GI50,SK-OV-3,3.72 µM (inactive)
same,GI50,SN12C,1.85 µM (inactive)
same,GI50,SNB-19,7.89 µM (inactive)
same,GI50,SNB-75,9.57 µM (inactive)
same,GI50,SNB-78,12.7 µM (inactive)
same,GI50,SR,0.18 µM (active)
same,GI50,SW-620,1.09 µM (active)
same,GI50,T47D,11.1 µM (inactive)
same,GI50,TK-10,5.12 µM (inactive)
same,GI50,U-251,2.1 µM (inactive)
same,GI50,UACC-257,9.71 µM (inactive)
same,GI50,UACC-62,4.74 µM (inactive)
same,GI50,UO-31,2.22 µM (inactive)
